According to patent publication US20230013823A1, “INHIBITORS OF HUMAN IMMUNODEFICIENCY VIRUS REPLICATION” (VIV HEALTHCARE UK (No. 5) LIMITED, priority 2019, published 2023):
pEC50: −log10 of the molar value.

What was measured:
[1] = test system: recombinant NL4-3 virus (Renilla luciferase in nef); experiment: HIV cell culture assay (antiviral activity, luciferase readout in MT-2 cells); assay type: cell-based; conditions: Renilla, NL43
Description: HIV cell culture assay—MT=2 cells, 293T cells and the proviral DNA clone of NL4-3 virus were obtained from the NIH AIDS Research and Reference Reagent Program. MT=2 cells were propagated in RPMI 1640 media supplemented with 10% heat inactivated fetal bovine serum (FBS), […] penicillin G and up to 100 units/mL streptomycin. The 293T cells were propagated in DMEM media supplemented with 10% heat inactivated FBS, […] penicillin G and […] streptomycin. A recombinant NL4-3 proviral clone, in which a section of the nef gene was replaced with the Renilla luciferase gene, was used to make the reference virus used in these studies. The recombinant virus was prepared through transfection of the recombinant NL4-3 proviral clone into 293T cells using Transit-293 Transfection Reagent from Mirus Bio LLC (Madison, Wis.). Supernatent was harvested after 2-3 days and the amount of virus present was titered in MT=2 cells using luciferase enzyme activity as a marker by measuring luciferase enzyme activity. Luciferase was quantitated using the EnduRen Live Cell Substrate from Promega (Madison, Wis.). Antiviral activities of compounds toward the recombinant virus were quantified by measuring luciferase activity in MT=2 cells infected for 4-5 days with the recombinant virus in the presence of serial dilutions of the compound.
The 50% effective concentration (EC50) was calculated by using the exponential form of the median effect equation where (Fa)=1/[1+(ED50/drug conc.)m] (Johnson V A, Byington R T. Infectivity Assay. In Techniques in HIV Research. ed. Aldovini A, Walker B D. 71-76. New York: Stockton Press. 1990). The 50% inhibitory concentration (EC50) was calculated by using the exponential form of the median effect equation where percent inhibition=1/[1+(EC50/drug concentration)m], where m is a parameter that reflects the slope of the concentration-response curve.

[2] = Compound cytotoxicity, XTT-based colorimetric assay; assay type: cell-based; conditions: human; uninfected MT2 cells, day 4, XTT
Description: Compound cytotoxicity and the corresponding CC50 values were determined using the same protocol as described in the antiviral assay except that uninfected cells were used. Cytotoxicity was assessed on day 4 in uninfected MT2 cells by using an XTT (2,3-bis[2-Methoxy-4-nitro-5-sulfophenyl]-2H-tetrazolium-5-carboxyanilide inner salt)-based colorimetric assay (Sigma-Aldrich, St Louis, Mo.).

Structure (SMILES) | pEC50 [1] | CC50 at 4 days [2] [pM]
Cn1nc(NS(C)(=O)=O)c2c(Cl)ccc(-n3c([C@H](Cc4cc(F)cc(F)c4)NC(=O)Cn4ccc(C5CC5)n4)nc4cc(-c5ccn(CC(C)(F)F)n5)ccc4c3=O)c21 (atropisomer, axis not shown; (P)) [Example 61, (S)—N-(1-((3P)-3-(4-chloro-1-methyl-3-(methylsulfonamido)-1H-indazol-7-yl)-7-(1-(2,2-difluoropropyl)-1H-pyrazol-3-yl)-4-oxo-3,4-dihydroquinazolin-2-yl)-2-(3,5-difluorophenyl)ethyl)-2-(3-cyclopropyl-1H-pyrazol-1-yl)acetamide] | 10.24 | > 100000
Cn1nc(NS(C)(=O)=O)c2c(Cl)ccc(-n3c([C@H](Cc4cc(F)cc(F)c4)NC(=O)Cn4nc(C(F)F)c5c4C(F)(F)[C@@H]4C[C@H]54)nc4cc(-c5nc(C(F)(F)F)ccc5F)ccc4c3=O)c21 (atropisomer, axis not shown; (P)) [Example 21, N—((S)-1-((3P)-3-(4-chloro-1-methyl-3-(methylsulfonamido)-1H-indazol-7-yl)-7-(3-fluoro-6-(trifluoromethyl)pyridin-2-yl)-4-oxo-3,4-dihydroquinazolin-2-yl)-2-(3,5-difluorophenyl)ethyl)-2-((3bS,4aR)-3-(difluoromethyl)-5,5-difluoro-3b,4,4a,5-tetrahydro-1H-cyclopropa[3,4]cyclopenta[1,2-c]pyrazol-1-yl)acetamide] | 9.82 | > 100000
Cn1nc(NS(C)(=O)=O)c2c(Cl)ccc(-n3c([C@H](Cc4cc(F)cc(F)c4)NC(=O)Cn4nc(C(F)F)c5c4C(F)(F)[C@@H]4C[C@H]54)nc4cc(-c5nccnc5C(F)(F)F)ccc4c3=O)c21 (atropisomer, axis not shown; (P)) [Example 23, N—((S)-1-((3P)-3-(4-chloro-1-methyl-3-(methylsulfonamido)-1H-indazol-7-yl)-4-oxo-7-(3-(trifluoromethyl)pyrazin-2-yl)-3,4-dihydroquinazolin-2-yl)-2-(3,5-difluorophenyl)ethyl)-2-((3bS,4aR)-3-(difluoromethyl)-5,5-difluoro-3b,4,4a,5-tetrahydro-1H-cyclopropa[3,4]cyclopenta[1,2-c]pyrazol-1-yl)acetamide] | 10.15 | > 100000
Cn1nc(NS(C)(=O)=O)c2c(Cl)ccc(-n3c([C@H](Cc4cc(F)cc(F)c4)NC(=O)Cn4nc(C(F)F)c5c4C(F)(F)[C@@H]4C[C@H]54)nc4cc(-c5cnn(CC(F)F)c5)ccc4c3=O)c21 (atropisomer, axis not shown; (P)) [Example 34, N—((S)-1-((3P)-3-(4-chloro-1-methyl-3-(methylsulfonamido)-1H-indazol-7-yl)-7-(1-(2,2-difluoroethyl)-1H-pyrazol-4-yl)-4-oxo-3,4-dihydroquinazolin-2-yl)-2-(3,5-difluorophenyl)ethyl)-2-((3bS,4aR)-3-(difluoromethyl)-5,5-difluoro-3b,4,4a,5-tetrahydro-1H-cyclopropa[3,4]cyclopenta[1,2-c]pyrazol-1-yl)acetamide] | 10.27 | > 100000
Cn1nc(NS(C)(=O)=O)c2c(Cl)ccc(-n3c([C@H](Cc4cc(F)cc(F)c4)NC(=O)Cn4nc(C(F)F)c5c4C(F)(F)[C@@H]4C[C@H]54)nc4cc(-c5ccn(CC(F)(F)C(F)F)n5)ccc4c3=O)c21 (atropisomer, axis not shown; (P)) [Example 47, N—((S)-1-((3P)-3-(4-chloro-1-methyl-3-(methylsulfonamido)-1H-indazol-7-yl)-4-oxo-7-(1-(2,2,3,3-tetrafluoropropyl)-1H-pyrazol-3-yl)-3,4-dihydroquinazolin-2-yl)-2-(3,5-difluorophenyl)ethyl)-2-((3bS,4aR)-3-(difluoromethyl)-5,5-difluoro-3b,4,4a,5-tetrahydro-1H-cyclopropa[3,4]cyclopenta[1,2-c]pyrazol-1-yl)acetamide] | 10.15 | > 100000
Cc1cc(-c2ccc3c(=O)n(-c4ccc(Cl)c5c(NS(C)(=O)=O)nn(C)c45)c([C@H](Cc4cc(F)cc(F)c4)NC(=O)Cn4nc(C(F)F)c5c4C(F)(F)[C@@H]4C[C@H]54)nc3c2)nn1CC(C)(F)F (atropisomer, axis not shown; (P)) [Example 68, N—((S)-1-((3P)-3-(4-chloro-1-methyl-3-(methylsulfonamido)-1H-indazol-7-yl)-7-(1-(2,2-difluoropropyl)-5-methyl-1H-pyrazol-3-yl)-4-oxo-3,4-dihydroquinazolin-2-yl)-2-(3,5-difluorophenyl)ethyl)-2-((3bS,4aR)-3-(difluoromethyl)-5,5-difluoro-3b,4,4a,5-tetrahydro-1H-cyclopropa[3,4]cyclopenta[1,2-c]pyrazol-1-yl)acetamide] | 10.02 | > 100000
Cn1nc(NS(C)(=O)=O)c2c(Cl)ccc(-n3c([C@H](Cc4cc(F)cc(F)c4)NC(=O)Cn4nc(C(F)F)c5c4C(F)(F)[C@@H]4C[C@H]54)nc4cc(-n5nccc5C(F)(F)F)ccc4c3=O)c21 (atropisomer, axis not shown; (P)) [Example 32, N—((S)-1-((3P)-3-(4-chloro-1-methyl-3-(methylsulfonamido)-1H-indazol-7-yl)-4-oxo-7-(5-(trifluoromethyl)-1H-pyrazol-1-yl)-3,4-dihydroquinazolin-2-yl)-2-(3,5-difluorophenyl)ethyl)-2-((3bS,4aR)-3-(difluoromethyl)-5,5-difluoro-3b,4,4a,5-tetrahydro-1H-cyclopropa[3,4]cyclopenta[1,2-c]pyrazol-1-yl)acetamide] | 10.10 | > 100000
Cn1nc(NS(C)(=O)=O)c2c(Cl)ccc(-n3c([C@H](Cc4cc(F)cc(F)c4)NC(=O)Cn4nc(C(F)F)c5c4C(F)(F)[C@@H]4C[C@H]54)nc4cc(-c5cc(C(F)(F)F)ncn5)ccc4c3=O)c21 (atropisomer, axis not shown; (P)) [Example 25, N—((S)-1-((3P)-3-(4-chloro-1-methyl-3-(methylsulfonamido)-1H-indazol-7-yl)-4-oxo-7-(6-(trifluoromethyl)pyrimidin-4-yl)-3,4-dihydroquinazolin-2-yl)-2-(3,5-difluorophenyl)ethyl)-2-((3bS,4aR)-3-(difluoromethyl)-5,5-difluoro-3b,4,4a,5-tetrahydro-1H-cyclopropa[3,4]cyclopenta[1,2-c]pyrazol-1-yl)acetamide] | 10.08 | > 100000
Cn1nc(NS(C)(=O)=O)c2c(Cl)ccc(-n3c([C@H](Cc4cc(F)cc(F)c4)NC(=O)Cn4nc(C(F)F)c5c4C(F)(F)[C@@H]4C[C@H]54)nc4cc(-c5ccnc(C#N)n5)ccc4c3=O)c21 (atropisomer, axis not shown; (P)) [Example 11, N—((S)-1-((3P)-3-(4-chloro-1-methyl-3-(methylsulfonamido)-1H-indazol-7-yl)-7-(2-cyanopyrimidin-4-yl)-4-oxo-3,4-dihydroquinazolin-2-yl)-2-(3,5-difluorophenyl)ethyl)-2-((3bS,4aR)-3-(difluoromethyl)-5,5-difluoro-3b,4,4a,5-tetrahydro-1H-cyclopropa[3,4]cyclopenta[1,2-c]pyrazol-1-yl)acetamide] | 10.05 | > 500000
COCc1ccccc1-c1ccc2c(=O)n(-c3ccc(Cl)c4c(NS(C)(=O)=O)nn(C)c34)c([C@H](Cc3cc(F)cc(F)c3)NC(=O)Cn3nc(C(F)F)c4c3C(F)(F)[C@@H]3C[C@H]43)nc2c1 (atropisomer, axis not shown; (P)) [Example 19, N—((S)-1-((3P)-3-(4-chloro-1-methyl-3-(methylsulfonamido)-1H-indazol-7-yl)-7-(2-(methoxymethyl)phenyl)-4-oxo-3,4-dihydroquinazolin-2-yl)-2-(3,5-difluorophenyl)ethyl)-2-((3bS,4aR)-3-(difluoromethyl)-5,5-difluoro-3b,4,4a,5-tetrahydro-1H-cyclopropa[3,4]cyclopenta[1,2-c]pyrazol-1-yl)acetamide] | 9.80 | > 500000
Cn1nc(NS(C)(=O)=O)c2c(Cl)ccc(-n3c([C@H](Cc4cc(F)cc(F)c4)NC(=O)Cn4nc(C(F)F)c5c4C(F)(F)[C@@H]4C[C@H]54)nc4cc(-c5ccc6scnc6c5)ccc4c3=O)c21 (atropisomer, axis not shown; (P)) [Example 45, N—((S)-1-(7-(benzo[d]thiazol-5-yl)-(3P)-3-(4-chloro-1-methyl-3-(methylsulfonamido)-1H-indazol-7-yl)-4-oxo-3,4-dihydroquinazolin-2-yl)-2-(3,5-difluorophenyl)ethyl)-2-((3bS,4aR)-3-(difluoromethyl)-5,5-difluoro-3b,4,4a,5-tetrahydro-1H-cyclopropa[3,4]cyclopenta[1,2-c]pyrazol-1-yl)acetamide] | 9.36 | > 100000
